*1 amine or outer side, *2 acyl side, *3 side chain or, on linkers, in order; H or OH if unused. Where a SMILES comes first, the peptide text is derived from it. Bridges are numbered along the chain shown (N, C = ends). Roman numbers before positions name the chains, in order. [ ]: non-standard residue; d: D form. Actinocin(9to1) = Cc1c2oc3c(C)ccc(C(=O)[*:1])c3nc-2c(C(=O)[*:2])c(N)c1=O; NMeV = CN[C@H](C(=O)O)C(C)C; Sar = CNCC(=O)O
Assays:
Format in all cases: cell-based, human
[1] = system: HSC-3 squamous cell carcinoma cells; assay: Cytotoxicity (MTT, 48 h) against HSC-3 cells; conditions: for CC50: Homo sapiens, HSC-3, 48 h, MTT, mean ± S.D. of triplicate; for SI (HSC-3): average CC50 towards HGF, HPLF, HPC divided by CC50 against HSC-3
Text: (§1) The target cells used in our study were human oral squamous cell carcinoma cell lines Ca9-22 (purchased from RIKEN Cell Bank, Tukuba, RCB-1976), HSC-2 (RCB1945), HSC-3 (RCB1975), HSC-4 (RCB1902), and three human normal oral cells, gingival fibroblast (HGF), periodontal ligament fibroblast (HPLF), and pulp cells (HPC) [established from the first premolar extracted tooth in the lower jaw (because of dysfunctional position or orthodontic treatment) and periodontal tissues of a child, according to the guideline of the Institutional Board of Meikai University Ethics Committee (No. A0808)], after obtaining informed consent from the patients. These cells were incubated for 48 h with the indicated concentrations of test samples or reference compounds sodium dichloroacetate (purchased from Sigma-Aldrich Chemical Company, Saint Louis, MO, USA), 5-fluorouracil (5-FU) from Kyowa (Tokyo, Japan), and doxorubicin (DXR) (St. Louis, MO, USA) and vehicle (DMSO) (0.008, 0.016, 0.031, 0.063, 0.125, 0.25, 0.5, and 1%) in Dulbecco’s Modified Eagle Medium (DMEM) media, which was supplemented with 10% heat-inactivated fetal bovine serum. Cell viability was determined by the MTT method. Cytotoxicity caused by the vehicle (DMSO) was subtracted.
(§2) SI was calculated by dividing the average CC50 value (concentration of the compound to kill 50% of the cells) of the compound towards HGF, HPLF, and HPC cells by the CC50 value of the compound against a specific neoplastic cell line.

Ca9-22 cells [2] = assay: Cell cycle assay in Ca9-22 cells; conditions: 20 h; for G2M cell population: p < 0.05; for effect on the cell cycle: 0.1, 0.2, and 0.4 µM
Description: The evaluation of varying quantities of 1d,e,k on the cell cycle in Ca9-22 cells was undertaken by a literature method. In brief, Ca9-22 cells were treated for 20 h without (control) or with the indicated concentrations of the test samples. To neglect the cytotoxicity effect of DMSO, all samples contained 0.1% DMSO. Cells (approximately 10^6 cells) were harvested, fixed for 1 h on ice with 1% paraformaldehyde, washed twice by phosphate-buffered saline, treated for 30 min at 37 °C with 0.2 mg/mL RNase A (ribonuclease A), stained for 15 min at room temperature with 0.01% propidium iodide in the presence of 0.01% NP-40 (nonyl phenoxypolyethoxyethanol) to prevent cell aggregation, filtered through Falcon® cell strainers (pore size: 40 µm) (Corning, NY, USA), subjected to cell sorting (SH800 Series; SONY Imaging Products and Solutions Inc., Kanagawa, Japan), and then analyzed with Cell Sorter Software version 2.1.2. (SONY Imaging Products and Solutions Inc., Kanagawa, Japan).

[3] = Cytotoxicity (MTT, 48 h) against HGF non-malignant cells; conditions: human, normal gingival fibroblasts (HGF), mean ± S.D. of triplicate
Text: as §1

[4] = system: Ca9-22, HSC-2, HSC-3, and HSC-4 cells; assay: Average cytotoxicity, selectivity and PSE over the four carcinoma lines; conditions: for CC50: Homo sapiens, average over Ca9-22, HSC-2, HSC-3, HSC-4; for Average SI: average of SI over Ca9-22, HSC-2, HSC-3, HSC-4
Text: as §1, §2
PSE reflects both the potencies and differences in cytotoxicity to neoplasms and non-malignant cells. This value was the product of the reciprocal of the average CC50 value of the compounds towards Ca9-22, HSC-2, HSC-3, and HSC-4 cells and the average SI value × 100.

[5] = system: Ca9-22 squamous cell carcinoma cells; assay: Cytotoxicity (MTT, 48 h) against Ca9-22 cells; conditions: for CC50: Homo sapiens, Ca9-22, 48 h, MTT, mean ± S.D. of triplicate; for SI (Ca9-22): average CC50 towards HGF, HPLF, HPC divided by CC50 against Ca9-22
Text: as §1, §2

[6] = system: HSC-2 squamous cell carcinoma cells; assay: Cytotoxicity (MTT, 48 h) against HSC-2 cells; conditions: for CC50: Homo sapiens, HSC-2; for SI (HSC-2): average CC50 towards HGF, HPLF, HPC divided by CC50 against HSC-2
Text: as §1, §2

[7] = Cytotoxicity (MTT, 48 h) against HPLF non-malignant cells; conditions: human, normal periodontal ligament fibroblasts (HPLF), mean ± S.D. of triplicate
Text: as §1

[8] = Cytotoxicity (MTT, 48 h) against HPC non-malignant cells; conditions: female, human, normal pulp cells (HPC), mean ± S.D. of triplicate
Text: as §1

[9] = system: HSC-4 squamous cell carcinoma cells; assay: Cytotoxicity (MTT, 48 h) against HSC-4 cells; conditions: for CC50: Homo sapiens, HSC-4, 48 h, MTT, mean ± S.D. of triplicate; for SI (HSC-4): average CC50 towards HGF, HPLF, HPC divided by CC50 against HSC-4
Text: as §1, §2

[10] = Average cytotoxicity over the three non-malignant cells; conditions: female, human, normal oral cells HGF, HPLF and HPC (average over the three)
Text: as §1

PARP = PARP cleavage in Ca9-22 cells (Western blot)
Description: (§3) The effect of 20 h incubation of different concentrations of 1k and 2a with Ca9-22 cells on the cleavage of PARP and procaspase 3 cleavage was undertaken using a reported procedure. In brief, the control and treated Ca9-22 cells at near confluent phase were collected and lysed, and protein samples of cell lysates (15 µg) were applied to SDS-polyacrylamide gel electrophoresis. After electrophoresis, the separated proteins were transferred onto a PVDF (polyvinylidene fluoride) filter. The blots were treated in skim milk and then probed for 120 min with a primary antibody cocktail (1:250) from an Apoptosis Western Blot Cocktail kit (purchased from Abcam, Cambridge, UK). The blots were washed and probed with horseradish peroxidase conjugated secondary antibody cocktail (1:100). Immunoreactivities were determined using Amer-sham ECL Select. Images were acquired using ChemiDoc MP System and Image Lab 4.1 software (Bio-Rad Laboratories, Hercules, CA, USA).

Ca9-22 cells [11] = assay: Mitotic accumulation in Ca9-22 cells
Description: Another way in which cytotoxicity could occur is by initiating mitosis. In order to examine this possibility, different concentrations of the potent cytotoxin 1k that were 3, 10, and 30 times the CC50 value were incubated with Ca9-22 cells for 20 h. […] In order to explore the possibility that the dichloroacetyl group contributed to this effect, concentrations of 2a that were 3, 10, and 30 times the CC50 concentration were incubated with Ca9-22 cells for 20 h. […] The question arose as to the way in which this observation could be useful in anticancer drug design. Cells which are stimulated to divide are likely more sensitive to a subsequent attack of a cytotoxin when cells are in a resting stage, for example.

procaspase 3 = assay: Procaspase 3 cleavage in Ca9-22 cells (Western blot); conditions: for cleavage of procaspase to caspase 3: 20 h
Description: as §3

[12] = 48 h, MTT, mean ± S.D. of triplicate

| SMILES | CC50 [1] [nM] | SI (HSC-3) [1] | G2M cell population (Ca9-22 cells [2]; 0.8 µM) | effect on the cell cycle (Ca9-22 cells [2]) | CC50 at 48 h [3] [nM] | CC50 [4] [nM] | Average SI [4] | CC50 [5] [nM] | SI (Ca9-22) [5] | CC50 [6, 12] [nM] | SI (HSC-2) [6] | CC50 at 48 h [7] [nM] | CC50 at 48 h [8] [nM] | CC50 [9] [nM] | SI (HSC-4) [9] | CC50 at 48 h [10] [nM] | other results |
| --- | --- | --- | --- | --- | --- | --- | --- | --- | --- | --- | --- | --- | --- | --- | --- | --- | --- |
| O=C1/C(=C/c2ccc(Cl)cc2)CN(C(=O)C(Cl)Cl)C/C1=C\c1ccc(Cl)cc1 [Compound 1d] | 190 ± 20 | 7.58 | most prominent increase | little effects | 2130 ± 120 | 130 | 14.7 | 50 | 28.8 | 100 ± 10 | 14.4 | 1290 ± 140 | 900 ± 20 | 180 ± 40 | 8.00 | 1440 | – |
| O=C1C(=Cc2ccccc2)CNCC1=Cc1ccccc1 [Compound 2a, 3,5-bis(benzylidene)-4-piperidone] | 800 ± 70 | 14.6 | – | – | 21700 ± 6000 | 540 | 30.3 | 190 ± 30 | – | 390 ± 10 | 30.0 | 9100 ± 2870 | 4300 ± 720 | 790 ± 220 | 14.8 | 11700 | PARP cleavage (PARP; 2 and 6 µM, 20 h): PARP was cleaved; mitotic accumulation (Ca9-22 cells [11]; 2 µM and 6 µM, 20 h): mitotic accumulation occurred; cleavage of procaspase to caspase 3 (procaspase 3; 2 and 6 µM): cleavage of procaspase to caspase 3 was observed |
| Cc1c2oc3c(C)ccc(C(=O)N[C@@H]4C(=O)N[C@H](C(C)C)C(=O)N5CCC[C@H]5C(=O)N(C)CC(=O)N(C)[C@@H](C(C)C)C(=O)O[C@@H]4C)c3nc-2c(C(=O)N[C@@H]2C(=O)N[C@H](C(C)C)C(=O)N3CCC[C@H]3C(=O)N(C)CC(=O)N(C)[C@@H](C(C)C)C(=O)O[C@@H]2C)c(N)c1=O [actinomycin D, reference compound] (I: T[dV]P[Sar][NMeV] / II: T[dV]P[Sar][NMeV]; ester I:1-I:C, II:1-II:C; linker I:N-II:N via Actinocin(9to1)) | – | – | – | – | – | – | – | – | – | – | – | – | – | – | – | – | PARP cleavage (PARP; 1 µM): Cleavage; mitosis (Ca9-22 cells [11]; 1 µM): Increased mitosis; procaspase 3 cleavage (procaspase 3; 1 µM): Cleavage |
| O=C1/C(=C/c2ccc([N+](=O)[O-])cc2)CN(C(=O)C(Cl)Cl)C/C1=C\c1ccc([N+](=O)[O-])cc1 [Compound 1k] | 100 ± 30 | 14.4 | most prominent increase | little effects | 3010 ± 330 | 100 | 28.1 | 20 ± 10 | – | 80 ± 10 | 18.0 | 760 ± 130 | 560 ± 80 | 180 ± 40 | 8.00 | 1440 | PARP cleavage (PARP; 0.2 and 0.6 µM, 20 h): PARP was cleaved; percentage of the cells undergoing mitosis (Ca9-22 cells [11]; two highest concentrations of 3, 10, 30 times the CC50 value, 20 h): increased significantly; subG1 population (Ca9-22 cells [2]; 0.8 µM): slight increase; cleavage of procaspase to caspase 3 (procaspase 3; 0.2 and 0.6 µM): cleavage of procaspase to caspase 3 was observed; average potency figure relative to 5-FU (times lower) ([4]; average CC50 compared with 5-FU): 310 times; HSC-2 CC50 [6, 12]: double-digit nanomolar |
| CC(=O)N1C/C(=C\c2ccccc2)C(=O)/C(=C/c2ccccc2)C1 [Compound 2b] | 2250 ± 80 | 4.93 | – | – | 23000 ± 1700 | 1420 | 9.58 | 640 ± 10 | 17.3 | 1230 ± 70 | 9.02 | 5600 ± 1130 | 4830 ± 120 | 1570 ± 120 | 7.07 | 11100 | – |
